According to patent EP1433789A1, “Pyrrolopyrazines and their use as selective apoptosis inducers” (Aponetics AG, priority 2002, dated 2004):

Columns and labels:
A20 = experiment: Hoechst 33342 nuclear staining (Table 3); format: cell-based, mouse; design: key: 0 relating to no activity; 1 relating to weak activity comprising less than 50% of the cells; score 2 relating to strong activity comprising more than 50% of the cells
Method in brief: (§1)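 Adherent cells (3-5×10^3, pre-spread 24 h) or suspension cells (8-10×10^3) treated with compounds at 10, 3, 1 and 0.3 µM for 24 or 48 h, then Hoechst 33342 stained for 30 min. Apoptotic nuclear morphology scored by fluorescence microscopy: 0 none, 1 weak (<50% cells), 2 strong (>50% cells).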

HeLa [1] = experiment: Hoechst 33342 nuclear staining (Table 3); format: cell-based, human; design: key: 0 relating to no activity; 1 relating to weak activity comprising less than 50% of the cells; score 2 relating to strong activity comprising more than 50% of the cells
Method in brief: as §1

Jurkat [2] = experiment: Hoechst 33342 nuclear staining (Table 3); format: cell-based, human; design: key: 0 relating to no activity; 1 relating to weak activity comprising less than 50% of the cells; score 2 relating to strong activity comprising more than 50% of the cells
Method in brief: as §1

K562 [3] = experiment: Hoechst 33342 nuclear staining (Table 3); format: cell-based, human; design: key: 0 relating to no activity; 1 relating to weak activity comprising less than 50% of the cells; score 2 relating to strong activity comprising more than 50% of the cells
Method in brief: as §1

KB = experiment: Hoechst 33342 nuclear staining (Table 3); format: cell-based, human; design: key: 0 relating to no activity; 1 relating to weak activity comprising less than 50% of the cells; score 2 relating to strong activity comprising more than 50% of the cells
Method in brief: as §1

HeLa [4] = experiment: MTS proliferation assay; format: cell-based; conditions: Homo sapiens, 72 h incubation
Method in brief: (§2)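 Cells (1.5*10^3–10^4/well) seeded 24 h before treatment, then exposed 72 h to compound at 10, 3, 1 or 0.3 µM final (≤5% DMSO in added medium). Viability by MTS reagent, 3 h further incubation, absorbance at 492 nm.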

Jurkat [5] = experiment: MTS proliferation assay; format: cell-based; conditions: Homo sapiens, 72 h incubation
Method in brief: as §2

K562 [6] = experiment: MTS proliferation assay; format: cell-based; conditions: Homo sapiens, K562, 72 h incubation
Method in brief: as §2

HeLa [7] = experiment: BrdU incorporation (proliferation); format: cell-based, human; design: key: 0 for no activity; 1 for a moderate inhibition; 2 for strong inhibition of proliferation; conditions: 3uM, 48 h
Experimental: (§3) Adherent cells are seeded out at 2 - 4*10^4 cells/well/ml in 24 well tissue culture plates 24 h prior to treatment. Suspension cells are seeded out at 2*10^5 cells/ml/well in 24 well plates. Compounds are added leading to final concentrations of 3 µM and 10 µM, respectively. Subsequently, BrdU (Molecular Probes #B-23151) at 10 µM final concentration is added and the plates are incubated for 48 h. After the incubation cells are processed according to standard procedures. The detection of the incorporated BrdU is done with the anti-bromodeoxyuridine Mab PRB-1, Alexa Fluor 660 conjugate (Molecular Probes #A-21306). The analysis is performed on a FACSCalibur™ by monitoring the fluorescence activity on FL3. The readout reflects DNA synthesis which is a hallmark for proliferation. The scores are defined the following: 0 for no activity, 1 for a moderate inhibition and 2 for strong inhibition of proliferation. Table 7 indicates inhibitory activities of several tested compounds on proliferation.

Jurkat [8] = experiment: BrdU incorporation (proliferation); format: cell-based, human; design: key: 0 for no activity; 1 for a moderate inhibition; 2 for strong inhibition of proliferation; conditions: 48 h
Experimental: as §3

Compound: CCC1Cc2cc(OC)c(OC)cc2-c2cc3nc4ccccc4nc3n21 (stereo not shown) [compound 13]
- Hoechst 33342 nuclear staining (A20; A20, 24h, conc 0.3 (µM)): 0
- Hoechst 33342 nuclear staining (A20; A20, 24h, conc 1 (µM)): 0
- Hoechst 33342 nuclear staining (A20; A20, 24h, conc 3 (µM)): 0
- Hoechst 33342 nuclear staining (A20; A20, 24h, conc 10 (µM)): 0
- Hoechst 33342 nuclear staining (A20; A20, 48h, conc 0.3 (µM)): 0
- Hoechst 33342 nuclear staining (A20; A20, 48h, conc 1 (µM)): 0
- Hoechst 33342 nuclear staining (A20; A20, 48h, conc 3 (µM)): 0
- Hoechst 33342 nuclear staining (A20; A20, 48h, conc 10 (µM)): 0
- Hoechst 33342 nuclear staining (HeLa [1]; 24h, conc 0.3 (µM)): 0
- Hoechst 33342 nuclear staining (HeLa [1]; 24h, conc 1 (µM)): 0
- Hoechst 33342 nuclear staining (HeLa [1]; 24h, conc 3 (µM)): 0
- Hoechst 33342 nuclear staining (HeLa [1]; 24h, conc 10 (µM)): 0
- Hoechst 33342 nuclear staining (HeLa [1]; 48h, conc 0.3 (µM)): 0
- Hoechst 33342 nuclear staining (HeLa [1]; 48h, conc 1 (µM)): 0
- Hoechst 33342 nuclear staining (HeLa [1]; 48h, conc 3 (µM)): 2 (score 2 relating to strong activity comprising more than 50% of the cells)
- Hoechst 33342 nuclear staining (HeLa [1]; 48h, conc 10 (µM)): 2 (score 2 relating to strong activity comprising more than 50% of the cells)
- Hoechst 33342 nuclear staining (Jurkat [2]; 24h, conc 0.3 (µM)): 0
- Hoechst 33342 nuclear staining (Jurkat [2]; 24h, conc 1 (µM)): 0
- Hoechst 33342 nuclear staining (Jurkat [2]; 24h, conc 3 (µM)): 1 (1 relating to weak activity comprising less than 50% of the cells)
- Hoechst 33342 nuclear staining (Jurkat [2]; 24h, conc 10 (µM)): 2 (score 2 relating to strong activity comprising more than 50% of the cells)
- Hoechst 33342 nuclear staining (Jurkat [2]; 48h, conc 0.3 (µM)): 0
- Hoechst 33342 nuclear staining (Jurkat [2]; 48h, conc 1 (µM)): 2 (score 2 relating to strong activity comprising more than 50% of the cells)
- Hoechst 33342 nuclear staining (Jurkat [2]; 48h, conc 3 (µM)): 2 (score 2 relating to strong activity comprising more than 50% of the cells)
- Hoechst 33342 nuclear staining (Jurkat [2]; 48h, conc 10 (µM)): 2 (score 2 relating to strong activity comprising more than 50% of the cells)
- Hoechst 33342 nuclear staining (K562 [3]; K562, 24h, conc 0.3 (µM)): 0
- Hoechst 33342 nuclear staining (K562 [3]; K562, 24h, conc 1 (µM)): 0
- Hoechst 33342 nuclear staining (K562 [3]; K562, 24h, conc 3 (µM)): 0
- Hoechst 33342 nuclear staining (K562 [3]; K562, 24h, conc 10 (µM)): 2 (score 2 relating to strong activity comprising more than 50% of the cells)
- Hoechst 33342 nuclear staining (K562 [3]; K562, 48h, conc 0.3 (µM)): 0
- Hoechst 33342 nuclear staining (K562 [3]; K562, 48h, conc 1 (µM)): 0
- Hoechst 33342 nuclear staining (K562 [3]; K562, 48h, conc 3 (µM)): 1 (1 relating to weak activity comprising less than 50% of the cells)
- Hoechst 33342 nuclear staining (K562 [3]; K562, 48h, conc 10 (µM)): 2 (score 2 relating to strong activity comprising more than 50% of the cells)
- Hoechst 33342 nuclear staining (KB; 24h, conc 0.3 (µM)): 0
- Hoechst 33342 nuclear staining (KB; 24h, conc 1 (µM)): 0
- Hoechst 33342 nuclear staining (KB; 24h, conc 3 (µM)): 0
- Hoechst 33342 nuclear staining (KB; 24h, conc 10 (µM)): 2 (score 2 relating to strong activity comprising more than 50% of the cells)
- Hoechst 33342 nuclear staining (KB; 48h, conc 0.3 (µM)): 0
- Hoechst 33342 nuclear staining (KB; 48h, conc 1 (µM)): 0
- Hoechst 33342 nuclear staining (KB; 48h, conc 3 (µM)): 2 (score 2 relating to strong activity comprising more than 50% of the cells)
- Hoechst 33342 nuclear staining (KB; 48h, conc 10 (µM)): 2 (score 2 relating to strong activity comprising more than 50% of the cells)
- IC50 (HeLa [4]): > 10 µM
- IC50 (Jurkat [5]): 1 to 10 µM
- IC50 (K562 [6]): > 10 µM
- BrdU incorporation (inhibition of proliferation) (HeLa [7]): 1
- BrdU incorporation (inhibition of proliferation) (Jurkat [8]; 3uM): 2
- BrdU incorporation (inhibition of proliferation) (Jurkat [8]; 10uM): 2
